Where two headings read alike, the source gives them in different places.
How the values were obtained:
intracellular MRSA = type: cell-based, Staphylococcus aureus; conditions: for %GFP+ rep 1 / z-scoreMRSA+ rep 1: replicate 1; for %GFP+ rep 2 / z-scoreMRSA+ rep 2: replicate 2; for %GFP+ rep 3 / z-scoreMRSA+ rep 3: replicate 3; for z-scoreMRSA+ mean: mean of 3 replicates
Summary of the method: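 HeLa cells were infected with GFP-expressing MRSA (mean MOI 6.8) for 1 h, treated with 30 µg/ml gentamicin for 15 min, then incubated overnight at 37°C with kinase inhibitors and 5 µg/ml gentamicin. Flow cytometry gave % GFP-positive cells, with cell count as viability. Hits were z-score ≤ -2 (infection) and ≥ -3 (count) versus DMSO.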

HeLa cells = assay: Compound screen by flow cytometry: HeLa cell count as surrogate readout of cell viability (z-scoreHeLa); type: cell-based, human; conditions: for cell count rep 1 / z-scoreHeLa rep 1: replicate 1; for cell count rep 2 / z-scoreHeLa rep 2: replicate 2; for cell count rep 3 / z-scoreHeLa rep 3: replicate 3; for z-scoreHeLa mean: mean of 3 replicates
Summary of the method: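 The viability surrogate was the count of fixed HeLa cells by flow cytometry, converted to z-scores against DMSO controls with values deviating two-fold excluded. Before counting, cells had been infected with MRSA for 1 h and cleared of extracellular bacteria with gentamicin. They were then exposed overnight to kinase inhibitors in triplicate.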

[1] = PKIS compound screen raw data, MRSA-infected HeLa cells
[2] = Yes/No: effect without cell death
[3] = compound screen, MRSA-infected HeLa cells
[4] = PKIS compound screen raw data, HeLa cell count
[5] = compound screen, HeLa cell count
[6] = PKIS compound screen, MRSA-infected HeLa cells
[7] = PKIS compound screen, Yes/No call (effect without cell death)
[8] = PKIS compound screen, HeLa cell count
[9] = PKIS compound screen, Yes/No call
[10] = PKIS compounds raw data, MRSA-infected HeLa cells
[11] = PKIS compounds raw data, HeLa cell count

## COc1cccc(NC(=O)NCCNc2ccnc(Nc3ccc(F)cc3)n2)c1 [GSK1379879A]
Intracellular MRSA; [1]
  %GFP+ rep 1: 22.7%
  %GFP+ rep 2: 22.0%
  %GFP+ rep 3: 21.2%
Intracellular MRSA; Yes/No call from z-scoreMRSA+
  effect: No
Intracellular MRSA; [2]
  hit: No
Intracellular MRSA; [3]
  z-scoreMRSA+ mean: -0.35
  z-scoreMRSA+ rep 1: -0.60
  z-scoreMRSA+ rep 2: -0.15
  z-scoreMRSA+ rep 3: -0.30
HeLa cells; [4]
  cell count rep 1: 4370
  cell count rep 2: 3480
  cell count rep 3: 4436
HeLa cells; Yes/No call from z-scoreHeLa
  cell death: No
HeLa cells; [5]
  z-scoreHeLa mean: -0.38
  z-scoreHeLa rep 1: 0.0133
  z-scoreHeLa rep 2: -0.63
  z-scoreHeLa rep 3: -0.51

## O=C(NCCNc1ccnc(Nc2ccc(F)cc2)n1)Nc1ccccc1F [GSK1379880A]
Intracellular MRSA; [1]
  %GFP+ rep 1: 25.7%
  %GFP+ rep 2: 21.6%
  %GFP+ rep 3: 22.7%
Intracellular MRSA; Yes/No call from z-scoreMRSA+
  effect: No
Intracellular MRSA; [2]
  hit: No
Intracellular MRSA; [3]
  z-scoreMRSA+ mean: 0.00131
  z-scoreMRSA+ rep 1: 0.10
  z-scoreMRSA+ rep 2: -0.25
  z-scoreMRSA+ rep 3: 0.15
HeLa cells; [4]
  cell count rep 1: 4656
  cell count rep 2: 4642
  cell count rep 3: 6039
HeLa cells; Yes/No call from z-scoreHeLa
  cell death: No
HeLa cells; [5]
  z-scoreHeLa mean: 0.33
  z-scoreHeLa rep 1: 0.22
  z-scoreHeLa rep 2: 0.26
  z-scoreHeLa rep 3: 0.51

## COc1ccc(Nc2nccc(NCCNC(=O)Nc3ccccc3F)n2)cc1 [GSK1379901A]
Intracellular MRSA; [1]
  %GFP+ rep 1: 25.4%
  %GFP+ rep 2: 21.0%
  %GFP+ rep 3: 21.4%
Intracellular MRSA; Yes/No call from z-scoreMRSA+
  effect: No
Intracellular MRSA; [2]
  hit: No
Intracellular MRSA; [3]
  z-scoreMRSA+ mean: -0.20
  z-scoreMRSA+ rep 1: 0.03
  z-scoreMRSA+ rep 2: -0.39
  z-scoreMRSA+ rep 3: -0.24
HeLa cells; [4]
  cell count rep 1: 4960
  cell count rep 2: 3999
  cell count rep 3: 4730
HeLa cells; Yes/No call from z-scoreHeLa
  cell death: No
HeLa cells; [5]
  z-scoreHeLa mean: -0.04
  z-scoreHeLa rep 1: 0.44
  z-scoreHeLa rep 2: -0.23
  z-scoreHeLa rep 3: -0.32

## Cc1ccc(NC(=O)c2ccc(Cl)cc2)cc1-c1ccc(C(=O)Nc2ccncc2)cc1 [GSK1398467A]
Intracellular MRSA; [1]
  %GFP+ rep 1: 17.7%
  %GFP+ rep 2: 18.1%
  %GFP+ rep 3: 16.2%
Intracellular MRSA; [6]
  z-scoreMRSA+ mean: -0.42
  z-scoreMRSA+ rep 1: -0.05
  z-scoreMRSA+ rep 2: -0.13
  z-scoreMRSA+ rep 3: -1.09
Intracellular MRSA; [7]
  hit: No
Intracellular MRSA; PKIS compound screen, Yes/No call on z-scoreMRSA+
  effect: No
HeLa cells; [4]
  cell count rep 1: 10600
  cell count rep 2: 12964
  cell count rep 3: 20345
HeLa cells; [8]
  z-scoreHeLa mean: -2.91
  z-scoreHeLa rep 1: -1.44
  z-scoreHeLa rep 2: -4.07
  z-scoreHeLa rep 3: -3.21
HeLa cells; PKIS compound screen, Yes/No call on z-scoreHeLa
  cell death: No

## Cc1ccc(NC(=O)Nc2ccccc2)cc1-c1ccc(C(=O)Nc2ccncc2)cc1 [GSK1398471A]
Intracellular MRSA; [9]
  effect: No
Intracellular MRSA; [7]
  hit: No
Intracellular MRSA; PKIS compound screen
  z-scoreMRSA+ mean: 2.16
  z-scoreMRSA+ rep 1: 1.78
  z-scoreMRSA+ rep 2: 2.78
  z-scoreMRSA+ rep 3: 1.92
Intracellular MRSA; [10]
  %GFP+ rep 1: 36.2%
  %GFP+ rep 2: 40.5%
  %GFP+ rep 3: 37.6%
HeLa cells; [9]
  cell death: No
HeLa cells; PKIS compound screen
  z-scoreHeLa mean: -2.19
  z-scoreHeLa rep 1: -2.47
  z-scoreHeLa rep 2: -2.21
  z-scoreHeLa rep 3: -1.88
HeLa cells; [11]
  cell count rep 1: 1939
  cell count rep 2: 2675
  cell count rep 3: 2624

## Cc1cc(-c2ccnc(Nc3cccc(C#N)c3)n2)cc(C)c1O [GSK1440913A]
Intracellular MRSA; [1]
  %GFP+ rep 1: 19.8%
  %GFP+ rep 2: 21.2%
  %GFP+ rep 3: 19.2%
Intracellular MRSA; Yes/No call from z-scoreMRSA+
  effect: No
Intracellular MRSA; [2]
  hit: No
Intracellular MRSA; [3]
  z-scoreMRSA+ mean: -0.84
  z-scoreMRSA+ rep 1: -1.28
  z-scoreMRSA+ rep 2: -0.34
  z-scoreMRSA+ rep 3: -0.90
HeLa cells; [4]
  cell count rep 1: 3913
  cell count rep 2: 3957
  cell count rep 3: 5747
HeLa cells; Yes/No call from z-scoreHeLa
  cell death: No
HeLa cells; [5]
  z-scoreHeLa mean: -0.09
  z-scoreHeLa rep 1: -0.32
  z-scoreHeLa rep 2: -0.27
  z-scoreHeLa rep 3: 0.32

Reference: PMC10999543, “Identification of kinase modulators as host-directed therapeutics against intracellular methicillin-resistant Staphylococcus aureus” (Frontiers in Cellular and Infection Microbiology, 2024)
